This note sets out measurements from patent US20240209028A1, “CNP COMPOUNDS” (priority 2022, published 2024).

The structures appear in SMILES notation. Starred links: 1 amine or outer side, 2 acyl side, 3 side chain; linkers in the order of their positions; H or OH if unused. Positions of bridges follow the written chain, without caps; N, C: chain ends. Residues, ends and D or L forms follow the SMILES beside them. *: point of attachment. C18 diacid = O=C(O)CCCCCCCCCCCCCCCCC(=O)*; γGlu = O=C(O)[C@H](CCC(=O)[*:2])N[*:1]; AEEA = NCCOCCOCC(=O)O

The target of this test is T1, human natriuretic peptide receptor 2 (hNPR2) (Homo sapiens, UniProt P20594).
T1 construct: expressed in transfected cells; host or cells: HEK293 (ATCC CRL-1573), clone 35, co-transfected with pGloSensor-42F
T1 sequence (P20594 23-1047): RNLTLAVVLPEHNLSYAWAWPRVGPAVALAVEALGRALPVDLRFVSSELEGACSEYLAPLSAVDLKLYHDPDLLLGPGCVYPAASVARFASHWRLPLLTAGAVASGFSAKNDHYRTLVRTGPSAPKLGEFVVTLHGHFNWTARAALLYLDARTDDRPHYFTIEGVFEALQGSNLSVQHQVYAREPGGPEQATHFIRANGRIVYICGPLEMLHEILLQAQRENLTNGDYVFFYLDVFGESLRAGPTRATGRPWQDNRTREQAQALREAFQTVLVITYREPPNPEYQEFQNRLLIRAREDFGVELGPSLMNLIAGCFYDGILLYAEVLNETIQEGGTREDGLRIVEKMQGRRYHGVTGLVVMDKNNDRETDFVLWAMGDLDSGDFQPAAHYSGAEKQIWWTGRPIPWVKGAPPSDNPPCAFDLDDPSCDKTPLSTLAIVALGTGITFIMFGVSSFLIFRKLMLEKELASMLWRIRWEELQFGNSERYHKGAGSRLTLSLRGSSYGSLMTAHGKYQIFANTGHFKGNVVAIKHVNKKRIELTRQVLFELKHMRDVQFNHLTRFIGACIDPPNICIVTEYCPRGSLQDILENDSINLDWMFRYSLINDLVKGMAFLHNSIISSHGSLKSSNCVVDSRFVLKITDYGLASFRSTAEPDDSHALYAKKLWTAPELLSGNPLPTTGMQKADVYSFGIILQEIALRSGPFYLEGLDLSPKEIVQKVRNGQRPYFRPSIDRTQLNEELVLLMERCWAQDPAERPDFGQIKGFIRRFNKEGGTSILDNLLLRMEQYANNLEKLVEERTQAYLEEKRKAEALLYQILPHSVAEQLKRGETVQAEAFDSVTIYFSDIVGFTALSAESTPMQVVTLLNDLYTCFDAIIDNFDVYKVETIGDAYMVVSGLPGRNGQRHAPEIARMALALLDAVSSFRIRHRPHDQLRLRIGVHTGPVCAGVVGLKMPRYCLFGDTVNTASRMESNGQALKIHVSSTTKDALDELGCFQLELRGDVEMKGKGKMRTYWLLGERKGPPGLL
The test can be described thus: In vitro hNPR2 activity assay (cGMP GloSensor reporter, HEK293). Format: cell-based. The settings on record: potency relative to CNP22 (0065). The gist of the method: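 Potency is the EC50 from a four-parameter logistic fit, also expressed relative to the in-plate CNP22 control (×100), with at least two replicates. Compounds (ten concentrations, […], HSA-free diluent with 1% OVA, 0.01% Tween20) were incubated 30 min at 37 °C on HEK293 cells co-expressing hNPR2 and a GloSensor cGMP luciferase. Luminescence detected with Bright-Glo.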
Turning to `CC[C@H](C)[C@@H]1NC(=O)[C@H](CCCNC(=N)N)NC(=O)[C@H](CC(=O)O)NC(=O)[C@H](CC(C)C)NC(=O)[C@@H]2CCCN2C(=O)[C@H](CC(C)C)NC(=O)CNC(=O)[C@H](Cc2ccccc2)NC(=O)[C@@H](NC(=O)CNC(=O)[C@H](CCC(N)=O)NC(=O)[C@H](CO)NC(=O)[C@H](CC(C)C)NC(=O)CNC(=O)[C@H](CCCCN)NC(=O)[C@H](CCCCN)NC(=O)[C@H](CCC(N)=O)NC(=O)[C@H](C)NC(=O)CNC(=O)[C@H](CCCCN)NC(=O)[C@H](Cc2ccc(O)cc2)NC(=O)[C@H](CCCCN)NC(=O)[C@H](CCCNC(=N)N)NC(=O)[C@H](C)NC(=O)COCCOCCNC(=O)COCCOCCNC(=O)COCCOCCNC(=O)CC[C@H](NC(=O)CC[C@H](NC(=O)CC[C@H](NC(=O)CC[C@H](NC(=O)CC[C@H](NC(=O)CCCCCCCCCCCCCCCCC(=O)O)C(=O)O)C(=O)O)C(=O)O)C(=O)O)C(=O)O)CSSC[C@@H](C(=O)O)NC(=O)CNC(=O)[C@H](CC(C)C)NC(=O)CNC(=O)[C@H](CO)NC(=O)[C@H](CC(C)C)NC(=O)[C@H](CO)NC(=O)CNC1=O` [compound 1452] ({C18 diacid-γGlu-γGlu-γGlu-γGlu-γGlu-AEEA-AEEA-AEEA}-ARKYKGAQKKGLSQGCFGLPLDRIGSLSGLGC-OH; disulfide 16-32), the “hNPR2 0% HSA. [EC50% rel CNP]” value is given as 57.6%.

`CC[C@H](C)[C@@H]1NC(=O)[C@H](CCCNC(=N)N)NC(=O)[C@H](CC(=O)O)NC(=O)[C@H](CC(C)C)NC(=O)[C@@H]2CCCN2C(=O)[C@H](CC(C)C)NC(=O)CNC(=O)[C@H](Cc2ccccc2)NC(=O)[C@@H](NC(=O)CNC(=O)[C@H](CCCCN)NC(=O)[C@H](CO)NC(=O)[C@H](CC(C)C)NC(=O)CNC(=O)[C@H](Cc2c[nH]cn2)NC(=O)[C@H](Cc2c[nH]cn2)NC(=O)[C@H](CCC(N)=O)NC(=O)[C@H](C)NC(=O)CNC(=O)[C@H](Cc2c[nH]cn2)NC(=O)[C@H](Cc2ccc(O)cc2)NC(=O)COCCOCCNC(=O)COCCOCCNC(=O)CC[C@H](NC(=O)CCCCCCCCCCCCCCCCC(=O)O)C(=O)O)CSSC[C@@H](C(=O)O)NC(=O)CNC(=O)[C@H](CC(C)C)NC(=O)CNC(=O)[C@H](CO)NC(=O)[C@H](CC(C)C)NC(=O)[C@H](CO)NC(=O)CNC1=O` [compound 1346] ({C18 diacid-γGlu-AEEA-AEEA}-YHGAQHHGLSKGCFGLPLDRIGSLSGLGC-OH; disulfide 13-29; C-terminus assumed): the “hNPR2 0% HSA. [EC50% rel CNP]” value stood at 17.0%.

Take `CC[C@H](C)[C@@H]1NC(=O)[C@H](CCCNC(=N)N)NC(=O)[C@H](CC(=O)O)NC(=O)[C@H](CC(C)C)NC(=O)[C@@H]2CCCN2C(=O)[C@H](CC(C)C)NC(=O)CNC(=O)[C@H](Cc2ccccc2)NC(=O)[C@@H](NC(=O)CNC(=O)[C@H](CO)NC(=O)[C@H](CO)NC(=O)[C@H](CC(C)C)NC(=O)CNC(=O)[C@H](CCCCN)NC(=O)[C@H](CCCCN)NC(=O)[C@H](CCC(N)=O)NC(=O)[C@H](C)NC(=O)CNC(=O)[C@H](CCC(=O)O)NC(=O)[C@H](Cc2ccc(O)cc2)NC(=O)[C@H](CCCCN)NC(=O)[C@H](CCCNC(=N)N)NC(=O)[C@H](C)NC(=O)[C@H](CCC(N)=O)NC(=O)[C@@H]2CCCN2C(=O)[C@H](Cc2c[nH]cn2)NC(=O)[C@H](CCC(=O)O)NC(=O)[C@H](CCC(N)=O)NC(=O)CC[C@H](NC(=O)CC[C@H](NC(=O)CC[C@H](NC(=O)CC[C@H](NC(=O)CCCCCCCCCCCCCCCCC(=O)O)C(=O)O)C(=O)O)C(=O)O)C(=O)O)CSSC[C@@H](C(=O)O)NC(=O)CNC(=O)[C@H](CC(C)C)NC(=O)CNC(=O)[C@H](CO)NC(=O)[C@H](CC(C)C)NC(=O)[C@H](CO)NC(=O)CNC1=O` [compound 1390] ({C18 diacid-γGlu-γGlu-γGlu-γGlu}-QEHPQARKYEGAQKKGLSSGCFGLPLDRIGSLSGLGC-OH; disulfide 21-37; C-terminus assumed): the “hNPR2 0% HSA. [EC50% rel CNP]” value is reported as 84.6%.

Consider `CC[C@H](C)[C@@H]1NC(=O)[C@H](CCCNC(=N)N)NC(=O)[C@H](CC(=O)O)NC(=O)[C@H](CC(C)C)NC(=O)[C@@H]2CCCN2C(=O)[C@H](CC(C)C)NC(=O)CNC(=O)[C@H](Cc2ccccc2)NC(=O)[C@@H](NC(=O)CNC(=O)[C@H](CCCCN)NC(=O)[C@H](CO)NC(=O)[C@H](CC(C)C)NC(=O)CNC(=O)[C@H](CCCCN)NC(=O)[C@H](CCC(=O)O)NC(=O)[C@H](CCC(N)=O)NC(=O)[C@H](C)NC(=O)CNC(=O)[C@H](Cc2c[nH]cn2)NC(=O)[C@H](Cc2ccc(O)cc2)NC(=O)COCCOCCNC(=O)COCCOCCNC(=O)CC[C@H](NC(=O)CCCCCCCCCCCCCCCCC(=O)O)C(=O)O)CSSC[C@@H](C(=O)O)NC(=O)CNC(=O)[C@H](CC(C)C)NC(=O)CNC(=O)[C@H](CO)NC(=O)[C@H](CC(C)C)NC(=O)[C@H](CO)NC(=O)CNC1=O` [compound 1240] ({C18 diacid-γGlu-AEEA-AEEA}-YHGAQEKGLSKGCFGLPLDRIGSLSGLGC-OH; disulfide 13-29; C-terminus assumed), for which the “hNPR2 0% HSA. [EC50% rel CNP]” value came to 11.2%.

On to `CC[C@H](C)[C@@H]1NC(=O)[C@H](CCCNC(=N)N)NC(=O)[C@H](CC(=O)O)NC(=O)[C@H](CC(C)C)NC(=O)[C@@H]2CCCN2C(=O)[C@H](CC(C)C)NC(=O)CNC(=O)[C@H](Cc2ccccc2)NC(=O)[C@@H](NC(=O)CNC(=O)[C@H](CCC(N)=O)NC(=O)[C@H](CO)NC(=O)CNC(=O)CNC(=O)[C@H](CCCCN)NC(=O)[C@H](CCCCN)NC(=O)[C@H](CCC(N)=O)NC(=O)[C@H](C)NC(=O)CNC(=O)[C@H](CCCCN)NC(=O)[C@H](Cc2ccc(O)cc2)NC(=O)[C@H](CCCCN)NC(=O)[C@H](CCCNC(=N)N)NC(=O)[C@H](C)NC(=O)[C@H](CCC(N)=O)NC(=O)[C@@H]2CCCN2C(=O)[C@H](Cc2c[nH]cn2)NC(=O)[C@H](CCC(=O)O)NC(=O)[C@H](CCC(N)=O)NC(=O)COCCOCCNC(=O)COCCOCCNC(=O)CC[C@H](NC(=O)CC[C@H](NC(=O)CC[C@H](NC(=O)CC[C@H](NC(=O)CC[C@H](NC(=O)CC[C@H](NC(=O)CCCCCCCCCCCCCCCCC(=O)O)C(=O)O)C(=O)O)C(=O)O)C(=O)O)C(=O)O)C(=O)O)CSSC[C@@H](C(=O)O)NC(=O)CNC(=O)[C@H](CC(C)C)NC(=O)CNC(=O)[C@H](CO)NC(=O)[C@H](CC(C)C)NC(=O)[C@H](CO)NC(=O)CNC1=O` [compound 1403] ({C18 diacid-γGlu-γGlu-γGlu-γGlu-γGlu-γGlu-AEEA-AEEA}-QEHPQARKYKGAQKKGGSQGCFGLPLDRIGSLSGLGC-OH; disulfide 21-37), for which the “hNPR2 0% HSA. [EC50% rel CNP]” value worked out at 87.1%.

As to `CC[C@H](C)[C@@H]1NC(=O)[C@H](CCCNC(=N)N)NC(=O)[C@H](CC(=O)O)NC(=O)[C@H](CC(C)C)NC(=O)[C@@H]2CCCN2C(=O)[C@H](CC(C)C)NC(=O)CNC(=O)[C@H](Cc2ccccc2)NC(=O)[C@@H](NC(=O)CNC(=O)[C@H](CCCCN)NC(=O)[C@H](CO)NC(=O)[C@H](CC(C)C)NC(=O)CNC(=O)[C@H](CCCCN)NC(=O)[C@H](CCCCN)NC(=O)[C@H](CCC(N)=O)NC(=O)[C@H](C)NC(=O)CNC(=O)[C@H](CCCCN)NC(=O)[C@H](Cc2ccc(O)cc2)NC(=O)[C@H](CCCCN)NC(=O)[C@H](CCCNC(=N)N)NC(=O)[C@H](C)NC(=O)COCCOCCNC(=O)COCCOCCNC(=O)CC[C@H](NC(=O)CC[C@H](NC(=O)CC[C@H](NC(=O)CC[C@H](NC(=O)CC[C@H](NC(=O)CC[C@H](NC(=O)CCCCCCCCCCCCCCCCC(=O)O)C(=O)O)C(=O)O)C(=O)O)C(=O)O)C(=O)O)C(=O)O)CSSC[C@@H](C(=O)O)NC(=O)CNC(=O)[C@H](CC(C)C)NC(=O)CNC(=O)[C@H](CO)NC(=O)[C@H](CC(C)C)NC(=O)[C@H](CO)NC(=O)CNC1=O` [compound 1460] ({C18 diacid-γGlu-γGlu-γGlu-γGlu-γGlu-γGlu-AEEA-AEEA}-ARKYKGAQKKGLSKGCFGLPLDRIGSLSGLGC-OH; disulfide 16-32), the “hNPR2 0% HSA. [EC50% rel CNP]” value was 32.4%.
